One data set concerns anti-PS2 antibodies. Description: immunoreactivity to anti-PS2 antibodies. It counts as binding.
The test system of data set [1] is IgG fraction containing anti-hEGF antibody. Description: enzyme immuno assay (EIA) for human EGF, plate sensitized with IgG fraction containing anti-hEGF antibody. It counts as binding, rabbit. Conditions: culture solutions of MCF7, MKN-45 and KATO-III; different from EGF. An excerpt:
In order to examine the relationship between the MCF7 cells thus secreting various growth factors and epidermal growth factor (hereinafter referred to as EGF) which is a kind of growth factor, we established an enzyme immuno assay (hereinafter referred to as EIA) which can assay human EGF, and tried to determine it in the culture solutions of MCF7 and human gastric cancer cells MKN-45 and KATO-III. […] It is conceivable that this substance was detected because another antibody was present in the enzyme immuno assay in addition to an antibody against EGF.
An assay system used for detecting the polypeptide of the present invention was prepared in the following manner.
200 μg/ml of an IgG fraction (purified from rabbit serum) containing anti-hEGF antibody was added to 50 mM of Tris-HCl (pH 8.0), and the mixture was poured to a microplate having 96 wells (Sumitomo Bakelite Co.) in an amount of 100 μl/well. After the reaction was conducted at 37° C. for 3 hours, the solution was discarded. Buffer A was further added thereto and blocking was carried out. […]
A plate was washed once with 200 μl/well of buffer A just prior to the use thereof. […] The resultant product was transferred to a Dynamic™ microfluor (for fluorescent enhancer), and the fluorescence was measured with an immunoreader (365 nm excitation, 415 nm fluorescence measurement). […]

Data set [2] in a line: isoelectric point of the purified polypeptide. It counts as physicochemical.

With “immunoreactive polypeptide: 60-amino-acid polypeptide, N-terminus EAQ, secreted by cancer cells MCF-7, MKN-45 or KATO-III; part of the PS2 precursor protein (EAQTETCTVAPRERQNCGFPGVTPSQCANKGCCFDDTVRGVPWCFYPNTIDVPPEEECEF; UniProt P04155 25-84, looked up)”, the “immunoreactivity to anti-PS2 antibodies” value in the data set on anti-PS2 antibodies is “immunoreactive to anti-PS2 antibodies”. Moreover, the “immunoreactivity in the EIA” value in data set [1] is “immunoreactive to the EIA”. In data set [2], this substance gave an isoelectric point of 4.3.

Values taken from patent publication US5202417A, “60-amino-acid polypeptide” (Takeda Chemical Industries, Ltd., priority 1989, dated 1993).
